Measurements as given in patent US20220325301A1, “AUXOTROPHIC SELECTION METHODS” (AUXOLYTIC LTD, priority 2019, published 2022).

Legend:
[1] = test system: UMPS knockout H9 human embryonic stem cells (hESCs); assay: Lineage-specific auxotrophy during beta cell differentiation (GFP ratio in mCherry-off vs mCherry-on cells, fluorescence microscopy); assay type: cell-based; settings: uridine withdrawal at day 12
Excerpt: As a proof of concept, UMPS knockout cells were engineered to express insulin and were differentiated to pancreatic progenitor cells using an appropriate method as described, for example, in Ma et al. (2018), Pagliuca et al. (2014), and/or Rezania et al. (2014) discussed and incorporated herein. The UMPS gene was knocked out in H9 human embryonic stem cells (hESCs) according to the methods described herein. A GFP-Luciferase expression construct under regulation of a constitutive promoter was integrated by homologous recombination into the HBB locus (see, for example, Dever, Daniel P., et al. “CRISPR/Cas9 β-globin gene targeting in human haematopoietic stem cells.” Nature 539.7629 (2016): 384-389, the contents of which are incorporated herein by reference in their entirety). […] Cells were monitored and assessed for mCherry and UMPS expression on subsequent days up to day 25. The differentiation protocol was followed with cells either in the continuous presence of uridine through day 18 or through the end of the culture period, or through only day 12 (during Stage 4). mCherry and UMPS expression were assessed. An mCherry on vs. off threshold was defined to identify UMPS expressing cells (given UMPS expression is coupled to mCherry) using thresholding based on fluorescence images. […]
Therefore, expression of GFP in mCherry negative cells, when uridine is present, was expected to be higher than the expression of GFP in mCherry negative cells when uridine is absent. […] The results are shown in Table 7, where the “Auxotrophy Metric” was calculated as the mean GFP ratio in uridine-withdrawn conditions divided by the mean GFP ratio in uridine-continued conditions: [(mean GFP(mCherry-Off)/mean GFP(mCherry-On)) uridine-withdrawn-conditions]/[(mean GFP(mCherry-Off)/mean GFP(mCherry-On)) uridine-continued conditions].

UMPS knockout cells [2] = assay: Selection of cells re-expressing UMPS in a UMPS-/- background (% mCherry+ by flow cytometry); assay type: cell-based; settings: after 14 days in culture
Experimental: A construct (SEQ ID NO: 42) expressing mCherry and UMPS separated by a 2A linker sequence under control of a constitutive promoter (EF1a) delivered via DNA vector was inserted by electroporation into the CCR5 locus targeted using homologous recombination arms. Cells were grown in the presence of uridine to alleviate any selection pressure, then uridine was removed to select for cells successfully re-expressing UMPS. Cells were sorted by expression of mCherry using flow cytometry. After 14 days in culture, % mCherry+ cells was approximately 20% in the presence of uridine; % mCherry+ cells was approximately 90% in the absence of uridine.

UMPS knockout cells [3] = assay: Split auxotrophy: selection of dual transgene integration (CD19/mCherry flow cytometry); assay type: cell-based, human; settings: day 16
Experimental: The UMPS locus is disrupted in the hESCs by electroporation of Cas9 RNP to insert an expression control sequence comprising a tissue-specific promoter into the genomic locus. The promoter will begin to instigate transcription due to interaction with endothelial tissue. For gene editing, hESCs are treated with 10 μm ROCK inhibitor (Y-27632) for 24 hours before electroporation. Cells at 70-80% confluence are harvested with ACCUTASE® solution (Life Technologies). 500,000 cells were used per reaction with a SpCas9 concentration of 150 μg/mL (Integrated DNA Technologies) and a Cas9:sgRNA molar ratio of 1:3 and electroporation performed in P3 Primary Cell solution (Lonza) in 16-well NUCLEOCUVETTE™ Strips in the 4D NUCLEOFECTOR system (Lonza). Immediately after electroporation, cells are transferred into one well of a MATRIGEL® protein mixture (Corning, Inc.)-coated 24 well plate containing 500 μl of mTeSR™ media (STEMCELL Technologies) with 10 μM Y-27632. Media was changed 24 hours after editing and Y-27632 is removed 48 hours after.
Independent functional domains of UMPS, i.e. OPRT and ODC, are reintroduced into UMPS knockout cells according to Example 2 using two separate vectors. A first homologous recombination donor vector carrying OPRT and mCherry (SEQ ID NO: 43) comprises sequence encoding OPRT (SEQ ID NO: 4, encoding amino acid sequence of SEQ ID NO: 5), 2A linker (SEQ ID NO: 19, SEQ ID NO: 21, or SEQ ID NO: 23, encoding amino acid sequences of SEQ ID NO: 20, SEQ ID NO: 22, and SEQ ID NO: 24, respectively), and sequence encoding mCherry fluorescent protein (SEQ ID NO: 34 or SEQ ID NO: 35, each encoding amino acid sequence of SEQ ID NO: 36). Homologous recombination donor vector carrying ODC and CD19 (SEQ ID NO: 44) comprises sequence encoding tCD19 (SEQ ID NO: 37, encoding amino acid sequence of SEQ ID NO: 38), 2A linker, and sequence encoding ODC (SEQ ID NO: 6, encoding amino acid sequence of SEQ ID NO: 7). Expression of OPRT and ODC constructs can be driven by a eukaryotic promoter such as EF1a (SEQ ID NO: 31 or SEQ ID NO: 32). Homologous recombination vectors are co-targeted for integration into safe harbor locus CCR5 (using, for example, CCR5 left and right homology arms selected from SEQ ID NOs: 11-15 as described herein). Homologous recombination vectors can further include termination signals such as a bGH-PolyA termination signal (SEQ ID NO: 39 or SEQ ID NO: 40). Cells are cultured with and without uridine, and the percent of cells expressing both CD19 and mCherry (CD19+/mCherry+) is measured by flow cytometry over time.

## INS-mCherry-UMPS: tricistronic construct expressing insulin, mCherry and UMPS under endogenous insulin regulatory control sequences, integrated into the insulin locus
[1]; culture day 12
  Auxotrophy Metric (mean GFP ratio mCherry-Off/mCherry-On, uridine-withdrawn divided by uridine-continued): 0.9904
[1]; culture day 18
  Auxotrophy Metric (mean GFP ratio mCherry-Off/mCherry-On, uridine-withdrawn divided by uridine-continued): 0.9827
[1]; culture day 25
  Auxotrophy Metric (mean GFP ratio mCherry-Off/mCherry-On, uridine-withdrawn divided by uridine-continued): 0.7261

## SEQ ID NO: 42: construct expressing mCherry and UMPS separated by a 2A linker under constitutive EF1a promoter, inserted into the CCR5 locus of UMPS knockout cells
UMPS knockout cells [2]; in the absence of uridine
  % mCherry+ cells: approximately 90%
UMPS knockout cells [2]; in the presence of uridine
  % mCherry+ cells: approximately 20%

## Split UMPS: two homologous recombination donor vectors, OPRT and mCherry (SEQ ID NO: 43) and ODC and CD19 (SEQ ID NO: 44), co-targeted to CCR5
UMPS knockout cells [3]; +Uridine
  % CD19+ only: 1.2%
  % CD19+/mCherry+: 0.3%
  % CD19-/mCherry-: 92.9%
  % mCherry+ only: 5.6%
UMPS knockout cells [3]; No Uridine
  % CD19+ only: 0.1%
  % CD19+/mCherry+: 94.7%
  % CD19-/mCherry-: 0.1%
  % mCherry+ only: 5.1%
